This is an account of results in patent US8158636B2, “Compounds and methods for kinase modulation, and indications therefor” (Plexxikon Inc., priority 2008, dated 2012).

Broadly, the IC50 is the point on the concentration scale where inhibition reaches its midpoint.

Holding throughout (format): biochemical
One test addresses Kdr (Homo sapiens, UniProt P35968). Description: Kinase activity assay, Kdr. To be noted: Table 1i; read-out: activity toward kinase Kdr, IC50. From the text:
(§1) Assays for the activity of kinases, including, but not limited to, Fms, Kit, B-Raf, B-Raf V600E, c-Raf-1, and TrkA are known in the art, for example as described in US Patent Publication Number US20070032519 and U.S. patent application Ser. No. 11/473,347 (see also, PCT publication WO2007002433), the disclosures of which are hereby incorporated by reference with respect to such assays.

In a further test the target is Fms (Homo sapiens, UniProt P07333). As to the kind of experiment: Kinase activity assay, Fms. To be noted: Table 1h; read-out: activity toward kinase Fms, IC50.
Fms, sequence (P07333 20-972): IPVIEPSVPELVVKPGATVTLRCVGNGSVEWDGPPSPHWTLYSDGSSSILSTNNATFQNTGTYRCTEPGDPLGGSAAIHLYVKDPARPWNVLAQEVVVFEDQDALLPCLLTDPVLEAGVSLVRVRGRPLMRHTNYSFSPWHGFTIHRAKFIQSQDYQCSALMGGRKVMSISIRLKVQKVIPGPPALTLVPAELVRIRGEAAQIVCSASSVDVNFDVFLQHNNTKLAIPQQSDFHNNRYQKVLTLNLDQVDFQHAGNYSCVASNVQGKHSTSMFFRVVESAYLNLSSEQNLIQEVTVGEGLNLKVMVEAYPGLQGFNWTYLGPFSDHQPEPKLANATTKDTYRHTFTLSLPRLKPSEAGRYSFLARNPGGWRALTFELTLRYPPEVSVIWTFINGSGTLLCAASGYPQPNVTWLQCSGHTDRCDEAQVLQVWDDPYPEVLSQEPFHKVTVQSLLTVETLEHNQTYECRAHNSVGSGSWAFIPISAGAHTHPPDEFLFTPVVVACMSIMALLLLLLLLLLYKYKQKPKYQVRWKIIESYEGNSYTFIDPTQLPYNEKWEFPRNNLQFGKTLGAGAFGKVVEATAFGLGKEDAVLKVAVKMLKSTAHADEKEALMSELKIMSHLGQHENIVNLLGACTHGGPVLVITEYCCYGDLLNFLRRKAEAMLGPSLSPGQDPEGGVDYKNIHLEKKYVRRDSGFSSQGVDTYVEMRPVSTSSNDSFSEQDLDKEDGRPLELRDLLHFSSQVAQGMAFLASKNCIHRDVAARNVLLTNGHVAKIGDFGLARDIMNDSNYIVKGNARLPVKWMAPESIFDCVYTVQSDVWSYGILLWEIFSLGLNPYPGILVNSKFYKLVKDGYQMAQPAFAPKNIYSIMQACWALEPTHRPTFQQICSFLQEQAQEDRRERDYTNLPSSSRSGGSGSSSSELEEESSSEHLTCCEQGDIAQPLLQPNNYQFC
Source text: as §1

The next test concerns the target Kit (Homo sapiens, UniProt P10721). Description: Kinase activity assay, Kit. To be noted: Table 1j; read-out: activity toward kinase Kit, IC50.
Source text: as §1

Kit, sequence (P10721 26-976): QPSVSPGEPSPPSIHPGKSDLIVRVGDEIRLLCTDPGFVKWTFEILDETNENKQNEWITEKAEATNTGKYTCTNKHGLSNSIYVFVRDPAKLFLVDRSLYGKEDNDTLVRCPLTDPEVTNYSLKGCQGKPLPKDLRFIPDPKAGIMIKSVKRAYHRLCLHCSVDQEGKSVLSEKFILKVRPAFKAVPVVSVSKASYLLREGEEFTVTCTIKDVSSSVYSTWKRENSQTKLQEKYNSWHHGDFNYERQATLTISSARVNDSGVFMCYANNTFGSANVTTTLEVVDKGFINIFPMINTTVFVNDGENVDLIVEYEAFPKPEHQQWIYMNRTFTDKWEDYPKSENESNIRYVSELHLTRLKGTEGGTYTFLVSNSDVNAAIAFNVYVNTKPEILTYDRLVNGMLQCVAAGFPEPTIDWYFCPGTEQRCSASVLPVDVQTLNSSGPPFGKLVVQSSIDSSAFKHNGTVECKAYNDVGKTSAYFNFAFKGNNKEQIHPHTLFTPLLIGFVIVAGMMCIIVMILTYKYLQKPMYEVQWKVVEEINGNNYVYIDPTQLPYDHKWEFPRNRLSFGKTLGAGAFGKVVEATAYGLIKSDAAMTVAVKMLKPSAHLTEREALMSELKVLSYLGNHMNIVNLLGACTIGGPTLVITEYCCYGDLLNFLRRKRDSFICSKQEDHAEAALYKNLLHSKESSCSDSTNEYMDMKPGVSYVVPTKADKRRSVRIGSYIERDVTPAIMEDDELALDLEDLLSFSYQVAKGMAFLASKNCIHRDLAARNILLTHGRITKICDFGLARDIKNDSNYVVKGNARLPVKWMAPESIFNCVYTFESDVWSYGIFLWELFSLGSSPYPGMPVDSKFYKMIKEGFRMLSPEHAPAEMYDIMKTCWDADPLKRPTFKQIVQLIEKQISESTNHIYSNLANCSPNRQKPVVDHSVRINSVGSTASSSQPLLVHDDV
Kdr, sequence (P35968 20-1356): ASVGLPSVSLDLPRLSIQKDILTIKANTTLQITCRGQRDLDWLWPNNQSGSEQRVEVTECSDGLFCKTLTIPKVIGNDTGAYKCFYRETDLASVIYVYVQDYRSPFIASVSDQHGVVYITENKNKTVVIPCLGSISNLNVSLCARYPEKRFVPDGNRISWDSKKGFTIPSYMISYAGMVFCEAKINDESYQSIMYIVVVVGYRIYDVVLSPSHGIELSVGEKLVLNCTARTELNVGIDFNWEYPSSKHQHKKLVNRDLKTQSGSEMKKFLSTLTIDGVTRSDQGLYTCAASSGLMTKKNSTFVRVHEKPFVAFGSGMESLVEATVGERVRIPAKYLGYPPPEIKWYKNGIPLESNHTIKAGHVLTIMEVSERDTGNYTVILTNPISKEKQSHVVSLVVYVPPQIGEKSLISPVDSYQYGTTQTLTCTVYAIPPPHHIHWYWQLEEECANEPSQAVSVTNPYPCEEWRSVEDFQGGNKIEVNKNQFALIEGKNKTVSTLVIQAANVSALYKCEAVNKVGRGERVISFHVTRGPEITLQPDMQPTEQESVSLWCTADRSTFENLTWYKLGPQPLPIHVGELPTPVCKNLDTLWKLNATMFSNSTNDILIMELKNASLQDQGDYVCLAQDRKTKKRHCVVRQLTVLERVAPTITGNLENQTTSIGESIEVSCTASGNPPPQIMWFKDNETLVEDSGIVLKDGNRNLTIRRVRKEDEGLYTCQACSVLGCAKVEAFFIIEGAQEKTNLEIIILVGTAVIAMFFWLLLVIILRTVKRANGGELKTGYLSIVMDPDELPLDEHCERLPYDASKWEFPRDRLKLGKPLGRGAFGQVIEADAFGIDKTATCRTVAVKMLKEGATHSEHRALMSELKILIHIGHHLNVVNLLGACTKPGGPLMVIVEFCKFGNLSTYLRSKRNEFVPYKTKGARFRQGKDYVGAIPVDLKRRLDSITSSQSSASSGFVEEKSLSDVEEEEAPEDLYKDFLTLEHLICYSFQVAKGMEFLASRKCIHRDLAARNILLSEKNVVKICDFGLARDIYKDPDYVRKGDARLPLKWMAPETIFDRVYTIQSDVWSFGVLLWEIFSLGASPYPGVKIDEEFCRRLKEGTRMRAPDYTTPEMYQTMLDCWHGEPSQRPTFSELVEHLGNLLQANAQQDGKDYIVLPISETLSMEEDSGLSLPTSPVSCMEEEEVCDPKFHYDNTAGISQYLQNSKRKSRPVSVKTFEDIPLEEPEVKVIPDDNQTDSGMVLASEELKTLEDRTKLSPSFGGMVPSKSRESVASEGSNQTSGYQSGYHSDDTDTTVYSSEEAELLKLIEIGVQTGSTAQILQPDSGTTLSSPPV

Regarding `COc1ccc(CNc2ncc(Cc3c[nH]c4ncncc34)cc2C)cn1` [P-0012, (6-Methoxy-pyridin-3-ylmethyl)-[3-methyl-5-(7H-pyrrolo[2,3-d]pyrimidin-5-ylmethyl)-pyridin-2-yl]-amine], the IC50 at Kdr, at Fms and on Kit was at most 10 µM in each case.

Turning to `COc1ccc(CNc2ncc(Cc3c[nH]c4ncncc34)cn2)cn1` [P-0015, (6-Methoxy-pyridin-3-ylmethyl)-[5-(7H-pyrrolo[2,3-d]pyrimidin-5-ylmethyl)-pyrimidin-2-yl]-amine], the IC50 at Kdr, on Fms and on Kit was at most 10 µM throughout.

Consider `COc1ccc(CNc2ncc(Cc3c[nH]c4ncncc34)cc2F)cn1` [P-0017, [3-Fluoro-5-(7H-pyrrolo[2,3-d]pyrimidin-5-ylmethyl)-pyridin-2-yl]-(6-methoxy-pyridin-3-ylmethyl)-amine], for which the IC50 on Kdr, on Fms and on Kit was at most 10 µM each time.

In the case of `Fc1nc(NCc2cnccc2C(F)(F)F)ccc1Cc1c[nH]c2ncncc12` [P-0018, [6-Fluoro-5-(7H-pyrrolo[2,3-d]pyrimidin-5-ylmethyl)-pyridin-2-yl]-(4-trifluoromethyl-pyridin-3-ylmethyl)-amine], the concentration for half-maximal inhibition (IC50) on Kdr, at Fms and on Kit was at most 10 µM in each case.

Regarding `COc1ccc(CNc2ccc(C(=O)c3c[nH]c4ncncc34)c(C)n2)cn1` [P-0019, {6-[(6-Methoxy-pyridin-3-ylmethyl)-amino]-2-methyl-pyridin-3-yl}-(7H-pyrrolo[2,3-d]pyrimidin-5-yl)-methanone], the IC50 on Fms is at most 10 µM.

Consider `Cc1cc(CNc2ccc(Cc3c[nH]c4ncncc34)c(F)n2)ccn1` [P-0020, [6-Fluoro-5-(7H-pyrrolo[2,3-d]pyrimidin-5-ylmethyl)-pyridin-2-yl]-(2-methyl-pyridin-4-ylmethyl)-amine], for which the concentration for half-maximal inhibition (IC50) at Kdr and on Fms was at most 10 µM each time.

As to `COc1cc(CNc2ccc(Cc3c[nH]c4ncncc34)c(F)n2)ccn1` [P-0023, [6-Fluoro-5-(7H-pyrrolo[2,3-d]pyrimidin-5-ylmethyl)-pyridin-2-yl]-(2-methoxy-pyridin-4-ylmethyl)-amine], the concentration for half-maximal inhibition (IC50) at Kdr, on Fms and on Kit was at most 10 µM throughout.

Regarding `COc1cc(CNc2ncc(Cc3c[nH]c4ncncc34)cn2)c(F)cn1` [P-0025, (5-Fluoro-2-methoxy-pyridin-4-ylmethyl)-[5-(7H-pyrrolo[2,3-d]pyrimidin-5-ylmethyl)-pyrimidin-2-yl]-amine], the IC50 at Kdr and on Fms was at most 10 µM in each case.

As for `COc1ncccc1CNc1ccc(Cc2c[nH]c3ncncc23)c(F)n1` [P-0026, [6-Fluoro-5-(7H-pyrrolo[2,3-d]pyrimidin-5-ylmethyl)-pyridin-2-yl]-(2-methoxy-pyridin-3-ylmethyl)-amine], the IC50 on Kdr, at Fms and at Kit was at most 10 µM in each case.

Turning to `Fc1nc(NCc2ccc(Cl)cn2)ccc1Cc1c[nH]c2ncncc12` [P-0027, (5-Chloro-pyridin-2-ylmethyl)-[6-fluoro-5-(7H-pyrrolo[2,3-d]pyrimidin-5-ylmethyl)-pyridin-2-yl]-amine], the half-maximal inhibitory concentration (IC50) on Kdr, at Fms and at Kit was at most 10 µM throughout.

`c1ccc(CNc2ncc(Cc3c[nH]c4ncncc34)cn2)nc1` [P-0028, Pyridin-2-ylmethyl-[5-(7H-pyrrolo[2,3-d]pyrimidin-5-ylmethyl)-pyrimidin-2-yl]-amine]: the IC50 at Fms was at most 10 µM.

On to `Clc1ccc(CNc2ncc(Cc3c[nH]c4ncncc34)cn2)cn1` [P-0029, (6-Chloro-pyridin-3-ylmethyl)-[5-(7H-pyrrolo[2,3-d]pyrimidin-5-ylmethyl)-pyrimidin-2-yl]-amine], for which the IC50 on Kdr, at Fms and at Kit was at most 10 µM throughout.

For `FC(F)(F)c1ccc(CNc2ncc(Cc3c[nH]c4ncncc34)cn2)cn1` [P-0030, [5-(7H-Pyrrolo[2,3-d]pyrimidin-5-ylmethyl)-pyrimidin-2-yl]-(6-trifluoromethyl-pyridin-3-ylmethyl)-amine], the IC50 on Kdr, at Fms and at Kit was at most 10 µM each time.

For the compound `c1cc(CNc2ncc(Cc3c[nH]c4ncncc34)cn2)nc(N2CCOCC2)c1` [P-0031, (6-Morpholin-4-yl-pyridin-2-ylmethyl)-[5-(7H-pyrrolo[2,3-d]pyrimidin-5-ylmethyl)-pyrimidin-2-yl]-amine], the IC50 on Kdr, at Fms and on Kit was at most 10 µM each time.

Take `c1cc(CNc2ncc(Cc3c[nH]c4ncncc34)cn2)nc(N2CCCC2)c1` [P-0032, (6-Pyrrolidin-1-yl-pyridin-2-ylmethyl)-[5-(7H-pyrrolo[2,3-d]pyrimidin-5-ylmethyl)-pyrimidin-2-yl]-amine]: the concentration for half-maximal inhibition (IC50) on Kdr, on Fms and at Kit was at most 10 µM each time.

In the case of `Cc1cnccc1CNc1ncc(Cc2c[nH]c3ncncc23)cn1` [P-0034, (3-Methyl-pyridin-4-ylmethyl)-[5-(7H-pyrrolo[2,3-d]pyrimidin-5-ylmethyl)-pyrimidin-2-yl]-amine], the half-inhibitory concentration (IC50) on Fms is at most 10 µM.

With `Cc1cc(CNc2ncc(Cc3c[nH]c4ncncc34)cn2)ccn1` [P-0035, (2-Methyl-pyridin-4-ylmethyl)-[5-(7H-pyrrolo[2,3-d]pyrimidin-5-ylmethyl)-pyrimidin-2-yl]-amine], on Fms, the half-maximal inhibitory concentration (IC50) is at most 10 µM.

For the compound `CNc1ncc(CNc2ccc(Cc3c[nH]c4ncncc34)c(F)n2)cn1` [P-0042, (5-{[6-Fluoro-5-(7H-pyrrolo[2,3-d]pyrimidin-5-ylmethyl)-pyridin-2-ylamino]-methyl}-pyrimidin-2-yl)-methyl-amine], the IC50 at Fms is at most 10 µM.

In the case of `Fc1nc(NCc2ccncc2Br)ccc1Cc1c[nH]c2ncncc12` [P-0046, (3-Bromo-pyridin-4-ylmethyl)-[6-fluoro-5-(7H-pyrrolo[2,3-d]pyrimidin-5-ylmethyl)-pyridin-2-yl]-amine], the half-inhibitory concentration (IC50) at Kdr and on Fms was at most 10 µM each time.

Consider `Fc1nc(NCc2ccncc2Cl)ccc1Cc1c[nH]c2ncncc12` [P-0047, (3-Chloro-pyridin-4-ylmethyl)-[6-fluoro-5-(7H-pyrrolo[2,3-d]pyrimidin-5-ylmethyl)-pyridin-2-yl]-amine], for which the IC50 on Kdr and on Fms was at most 10 µM each time.

Turning to `Cc1ncc(CNc2ccc(Cc3c[nH]c4ncncc34)c(F)n2)cn1` [P-0048, [6-Fluoro-5-(7H-pyrrolo[2,3-d]pyrimidin-5-ylmethyl)-pyridin-2-yl]-(2-methyl-pyrimidin-5-ylmethyl)-amine], at Fms, the concentration for half-maximal inhibition (IC50) is at most 10 µM.

`Fc1cnccc1CNc1ccc(Cc2c[nH]c3ncncc23)c(F)n1` [P-0049, (3-Fluoro-pyridin-4-ylmethyl)-[6-fluoro-5-(7H-pyrrolo[2,3-d]pyrimidin-5-ylmethyl)-pyridin-2-yl]-amine]: the IC50 at Fms is at most 10 µM.

For the compound `Cc1cnccc1CNc1ccc(Cc2c[nH]c3ncncc23)c(F)n1` [P-0055, [6-Fluoro-5-(7H-pyrrolo[2,3-d]pyrimidin-5-ylmethyl)-pyridin-2-yl]-(3-methyl-pyridin-4-ylmethyl)-amine], the half-maximal inhibitory concentration (IC50) on Fms is at most 10 µM.

Regarding `COc1ccncc1CNc1ccc(Cc2c[nH]c3ncncc23)c(F)n1` [P-0056, [6-Fluoro-5-(7H-pyrrolo[2,3-d]pyrimidin-5-ylmethyl)-pyridin-2-yl]-(4-methoxy-pyridin-3-ylmethyl)-amine], the half-maximal inhibitory concentration (IC50) at Fms is at most 10 µM.

For the compound `Cc1ccnc(CNc2ccc(Cc3c[nH]c4ncncc34)c(F)n2)c1` [P-0058, [6-Fluoro-5-(7H-pyrrolo[2,3-d]pyrimidin-5-ylmethyl)-pyridin-2-yl]-(4-methyl-pyridin-2-ylmethyl)-amine], the half-maximal inhibitory concentration (IC50) on Kdr and at Fms was at most 10 µM throughout.

For the compound `Fc1nc(NCc2ccnc(N3CCCC3)c2)ccc1Cc1c[nH]c2ncncc12` [P-0059, [6-Fluoro-5-(7H-pyrrolo[2,3-d]pyrimidin-5-ylmethyl)-pyridin-2-yl]-(2-pyrrolidin-1-yl-pyridin-4-ylmethyl)-amine], the concentration for half-maximal inhibition (IC50) at Kdr and on Fms was at most 10 µM each time.

Consider `CNc1ncccc1CNc1ccc(Cc2c[nH]c3ncncc23)c(F)n1` [P-0066, [6-Fluoro-5-(7H-pyrrolo[2,3-d]pyrimidin-5-ylmethyl)-pyridin-2-yl]-(2-methylamino-pyridin-3-ylmethyl)-amine], for which the IC50 on Kdr and at Fms was at most 10 µM each time.

As to `Fc1ncccc1CNc1ccc(Cc2c[nH]c3ncncc23)c(F)n1` [P-0068, (2-Fluoro-pyridin-3-ylmethyl)-[6-fluoro-5-(7H-pyrrolo[2,3-d]pyrimidin-5-ylmethyl)-pyridin-2-yl]-amine], the IC50 on Kdr and at Fms was at most 10 µM each time.

On to `Fc1cc(CNc2ccc(Cc3c[nH]c4ncncc34)c(F)n2)ccn1` [P-0074, (2-Fluoro-pyridin-4-ylmethyl)-[6-fluoro-5-(7H-pyrrolo[2,3-d]pyrimidin-5-ylmethyl)-pyridin-2-yl]-amine], for which the IC50 on Kdr and on Fms was at most 10 µM each time.

As to `COCCc1ncc(CNc2ccc(Cc3c[nH]c4ncncc34)c(F)n2)cn1` [P-0080, [6-Fluoro-5-(7H-pyrrolo[2,3-d]pyrimidin-5-ylmethyl)-pyridin-2-yl]-[2-(2-methoxy-ethyl)-pyrimidin-5-ylmethyl]-amine], the IC50 on Fms was at most 10 µM.

`COc1ncccc1CNc1ncc(Cc2c[nH]c3ncncc23)cn1` [P-0084, (2-Methoxy-pyridin-3-ylmethyl)-[5-(7H-pyrrolo[2,3-d]pyrimidin-5-ylmethyl)-pyrimidin-2-yl]-amine]: the concentration for half-maximal inhibition (IC50) at Fms and on Kit was at most 10 µM each time.
